Source: ChEMBL document CHEMBL3407449, “Synthesis, anticancer and radiosensitizing evaluation of some novel sulfonamide derivatives” (Eur J Med Chem, 2015)

Legend:
HepG2 [1] = assay: Cytotoxicity against human HepG2 cells assessed as surviving fraction ratio after 48 hrs by SRB assay relative to control; assay type: functional, cell-based
HepG2 [2] = assay: Cytotoxicity against human HepG2 cells assessed as surviving fraction ratio at 50 uM after 48 hrs by SRB assay relative to control; assay type: functional
HepG2 [3] = assay: Cytotoxicity against human HepG2 cells assessed as surviving fraction ratio at 12.5 uM after 48 hrs by SRB assay relative to control; assay type: functional
HepG2 [4] = assay: Cytotoxicity against human HepG2 cells assessed as surviving fraction ratio at 25 uM after 48 hrs by SRB assay relative to control; assay type: functional
HepG2 [5] = assay: Cytotoxicity against human HepG2 cells assessed as surviving fraction ratio at 5 uM after 48 hrs by SRB assay relative to control; assay type: functional
HepG2 [6] = assay: Cytotoxicity against human HepG2 cells assessed as surviving fraction ratio at 5 uM incubated for 2 hrs prior to 8Gy gamma-irradiation measured after 48 hrs by ELISA reader relative to control; assay type: functional
HepG2 [7] = assay: Cytotoxicity against human HepG2 cells assessed as surviving fraction ratio at 12.5 uM incubated for 2 hrs prior to 8Gy gamma-irradiation measured after 48 hrs by ELISA reader relative to control; assay type: functional
HepG2 [8] = assay: Cytotoxicity against human HepG2 cells assessed as surviving fraction ratio incubated for 2 hrs prior to 8Gy gamma-irradiation measured after 48 hrs by ELISA reader relative to control; assay type: functional, cell-based; conditions: HepG2, light or radiation study
HepG2 [9] = assay: Cytotoxicity against human HepG2 cells assessed as surviving fraction ratio at 50 uM incubated for 2 hrs prior to 8Gy gamma-irradiation measured after 48 hrs by ELISA reader relative to control; assay type: functional
HepG2 [10] = assay: Cytotoxicity against human HepG2 cells assessed as surviving fraction ratio at 25 uM incubated for 2 hrs prior to 8Gy gamma-irradiation measured after 48 hrs by ELISA reader relative to control; assay type: functional
[11] = Homo sapiens, HepG2, 48 h, read-out: IC50

Cc1ccc(S(=O)(=O)Nc2ccc(C(=O)/C=C/c3ccccc3)cc2)cc1
IC50 (HepG2 [1]; hepg2): Not Active | Ratio (HepG2 [2]): 0.529 | Ratio (HepG2 [3]): 2.032 | Ratio (HepG2 [4]): 1.017 | Ratio (HepG2 [5]): 2.385

CC(=O)c1ccc(NS(=O)(=O)c2ccc(C)cc2)cc1
IC50 (HepG2 [1]; [11]): 35.8 µM | Ratio (HepG2 [2]): 0.367 | Ratio (HepG2 [3]): 0.726 | Ratio (HepG2 [4]): 0.547 | Ratio (HepG2 [5]): 1.048

CC(=O)c1ccc(NS(=O)(=O)c2ccccc2)cc1
IC50 (HepG2 [1]; [11]): 35.3 µM | Ratio (HepG2 [2]): 0.417 | Ratio (HepG2 [3]): 0.719 | Ratio (HepG2 [4]): 0.464 | Ratio (HepG2 [5]): 0.891

Cc1ccc(S(=O)(=O)Nc2ccc(C(=O)/C=C/c3ccc([N+](=O)[O-])cc3)cc2)cc1
Ratio (HepG2 [6]): 0.558 | IC50 (HepG2 [1]; [11]): 26 µM | Ratio (HepG2 [7]): 0.451 | Ratio (HepG2 [2]): 0.495 | Ratio (HepG2 [3]): 0.348 | IC50 (HepG2 [8]): 20.5 µM | Ratio (HepG2 [4]): 0.392 | Ratio (HepG2 [5]): 0.476 | Ratio (HepG2 [9]): 0.249 | Ratio (HepG2 [10]): 0.368

C/C(=N\NC(=O)CC#N)c1ccc(NS(=O)(=O)c2ccccc2)cc1
IC50 (HepG2 [1]; [11]): 28 µM | Ratio (HepG2 [2]): 0.242 | Ratio (HepG2 [3]): 0.778 | Ratio (HepG2 [4]): 0.361 | Ratio (HepG2 [5]): 0.881

C/C(=N\NC(=O)CC#N)c1ccc(NS(=O)(=O)c2ccc(C)cc2)cc1
IC50 (HepG2 [1]; [11]): 26 µM | Ratio (HepG2 [2]): 0.293 | Ratio (HepG2 [3]): 0.53 | Ratio (HepG2 [4]): 0.349 | Ratio (HepG2 [5]): 0.837

C/C(=N/n1c(N)cc(N)c(C#N)c1=O)c1ccc(NS(=O)(=O)c2ccccc2)cc1
Ratio (HepG2 [6]): 0.395 | IC50 (HepG2 [1]; [11]): 25.5 µM | Ratio (HepG2 [7]): 0.194 | Ratio (HepG2 [2]): 0.321 | Ratio (HepG2 [3]): 0.556 | IC50 (HepG2 [8]): 11.5 µM | Ratio (HepG2 [4]): 0.312 | Ratio (HepG2 [5]): 0.748 | Ratio (HepG2 [9]): 0.34 | Ratio (HepG2 [10]): 0.299

C/C(=N\n1c(N)cc(N)c(C#N)c1=O)c1ccc(NS(=O)(=O)c2ccc(C)cc2)cc1
IC50 (HepG2 [1]; [11]): 37 µM | Ratio (HepG2 [2]): 0.385 | Ratio (HepG2 [3]): 0.761 | Ratio (HepG2 [4]): 0.577 | Ratio (HepG2 [5]): 0.937

C/C(=N\NC(=O)c1sc(N)c(C#N)c1N)c1ccc(NS(=O)(=O)c2ccccc2)cc1
Ratio (HepG2 [6]): 0.526 | IC50 (HepG2 [1]; [11]): 23.3 µM | Ratio (HepG2 [7]): 0.386 | Ratio (HepG2 [2]): 0.274 | Ratio (HepG2 [3]): 0.456 | IC50 (HepG2 [8]): 18.3 µM | Ratio (HepG2 [4]): 0.239 | Ratio (HepG2 [5]): 0.869 | Ratio (HepG2 [9]): 0.322 | Ratio (HepG2 [10]): 0.253

C/C(=N\NC(=O)c1sc(N)c(C#N)c1N)c1ccc(NS(=O)(=O)c2ccc(C)cc2)cc1
Ratio (HepG2 [6]): 0.291 | IC50 (HepG2 [1]; [11]): 21.8 µM | Ratio (HepG2 [7]): 0.227 | Ratio (HepG2 [2]): 0.323 | Ratio (HepG2 [3]): 0.383 | IC50 (HepG2 [8]): 5.8 µM | Ratio (HepG2 [4]): 0.39 | Ratio (HepG2 [5]): 0.571 | Ratio (HepG2 [9]): 0.174 | Ratio (HepG2 [10]): 0.105

C/C(=N/NC(=O)/C(C#N)=C/N(C)C)c1ccc(NS(=O)(=O)c2ccc(C)cc2)cc1
IC50 (HepG2 [1]; [11]): 37.8 µM | Ratio (HepG2 [2]): 0.378 | Ratio (HepG2 [3]): 0.877 | Ratio (HepG2 [4]): 0.546 | Ratio (HepG2 [5]): 1.141

C/C(=N/NC(=O)C(C#N)C(=S)S)c1ccc(NS(=O)(=O)c2ccc(C)cc2)cc1 (stereo not given)
Ratio (HepG2 [6]): 0.245 | IC50 (HepG2 [1]; [11]): 11 µM | Ratio (HepG2 [7]): 0.206 | Ratio (HepG2 [2]): 0.414 | Ratio (HepG2 [3]): 0.229 | IC50 (HepG2 [8]): 5 µM | Ratio (HepG2 [4]): 0.291 | Ratio (HepG2 [5]): 0.344 | Ratio (HepG2 [9]): 0.158 | Ratio (HepG2 [10]): 0.189

C/C(=N/NC(=O)c1sc2c(c1N)CCCC2)c1ccc(NS(=O)(=O)c2ccc(C)cc2)cc1
Ratio (HepG2 [6]): 0.521 | IC50 (HepG2 [1]; [11]): 25.5 µM | Ratio (HepG2 [7]): 0.524 | Ratio (HepG2 [2]): 0.277 | Ratio (HepG2 [3]): 0.528 | IC50 (HepG2 [8]): 20 µM | Ratio (HepG2 [4]): 0.331 | Ratio (HepG2 [5]): 0.868 | Ratio (HepG2 [9]): 0.229 | Ratio (HepG2 [10]): 0.329

COc1ccc(-c2c(C#N)c(N)n(/N=C(/C)c3ccc(NS(=O)(=O)c4ccc(C)cc4)cc3)c(=O)c2C#N)cc1
IC50 (HepG2 [1]; [11]): 31.8 µM | Ratio (HepG2 [2]): 0.375 | Ratio (HepG2 [3]): 0.696 | Ratio (HepG2 [4]): 0.363 | Ratio (HepG2 [5]): 0.984

C/C(=N/n1c(N)c(C#N)c(-c2ccc([N+](=O)[O-])cc2)c(C#N)c1=O)c1ccc(NS(=O)(=O)c2ccc(C)cc2)cc1
Ratio (HepG2 [6]): 0.439 | IC50 (HepG2 [1]; [11]): 31.5 µM | Ratio (HepG2 [7]): 0.603 | Ratio (HepG2 [2]): 0.408 | Ratio (HepG2 [3]): 0.635 | IC50 (HepG2 [8]): 23.5 µM | Ratio (HepG2 [4]): 0.331 | Ratio (HepG2 [5]): 0.951 | Ratio (HepG2 [9]): 0.352 | Ratio (HepG2 [10]): 0.345

Cc1ccc(/C=C/C(=O)c2ccc(NS(=O)(=O)c3ccc(C)cc3)cc2)cc1
IC50 (HepG2 [1]; [11]): 49.8 µM | Ratio (HepG2 [2]): 0.489 | Ratio (HepG2 [3]): 1.616 | Ratio (HepG2 [4]): 0.781 | Ratio (HepG2 [5]): 1.931

Cc1ccc(S(=O)(=O)Nc2ccc(C(=O)/C=C/c3ccc(F)cc3)cc2)cc1
IC50 (HepG2 [1]; [11]): 39.3 µM | Ratio (HepG2 [2]): 0.551 | Ratio (HepG2 [3]): 0.497 | Ratio (HepG2 [4]): 0.383 | Ratio (HepG2 [5]): 1.461

Cc1ccc(S(=O)(=O)Nc2ccc(C(=O)/C=C/c3ccc(Cl)cc3)cc2)cc1
IC50 (HepG2 [1]; [11]): 43.3 µM | Ratio (HepG2 [2]): 0.402 | Ratio (HepG2 [3]): 1.478 | Ratio (HepG2 [4]): 0.591 | Ratio (HepG2 [5]): 2.16

Cc1ccc(S(=O)(=O)Nc2ccc(C(/C=C/c3ccc([N+](=O)[O-])cc3)=N\O)cc2)cc1
IC50 (HepG2 [1]; hepg2): Not Active | Ratio (HepG2 [2]): 0.632 | Ratio (HepG2 [3]): 1.769 | Ratio (HepG2 [4]): 1.351 | Ratio (HepG2 [5]): 1.723

Cc1ccc(S(=O)(=O)Nc2ccc(-c3cc(-c4ccc([N+](=O)[O-])cc4)[nH]n3)cc2)cc1
IC50 (HepG2 [1]; [11]): 44.8 µM | Ratio (HepG2 [2]): 0.508 | Ratio (HepG2 [3]): 1.197 | Ratio (HepG2 [4]): 0.522 | Ratio (HepG2 [5]): 1.772

Cc1ccc(S(=O)(=O)Nc2ccc(-c3cc(-c4ccc([N+](=O)[O-])cc4)n(-c4ccccc4)n3)cc2)cc1
IC50 (HepG2 [1]; hepg2): Not Active | Ratio (HepG2 [2]): 0.536 | Ratio (HepG2 [3]): 1.841 | Ratio (HepG2 [4]): 0.923 | Ratio (HepG2 [5]): 2.085

Cc1ccc(S(=O)(=O)Nc2ccc(-c3cc(-c4ccc([N+](=O)[O-])cc4)n(C(N)=S)n3)cc2)cc1
IC50 (HepG2 [1]; hepg2): Not Active | Ratio (HepG2 [2]): 0.5 | Ratio (HepG2 [3]): 1.759 | Ratio (HepG2 [4]): 1.078 | Ratio (HepG2 [5]): 1.907

Cc1ccc(S(=O)(=O)Nc2ccc(-c3cc(-c4ccc([N+](=O)[O-])cc4)n(C(=S)NN)n3)cc2)cc1
IC50 (HepG2 [1]; [11]): 45.3 µM | Ratio (HepG2 [2]): 0.53 | Ratio (HepG2 [3]): 1.189 | Ratio (HepG2 [4]): 0.507 | Ratio (HepG2 [5]): 1.766

Cc1ccc(S(=O)(=O)Nc2ccc(-c3cc(-c4ccc([N+](=O)[O-])cc4)[nH]c(=O)n3)cc2)cc1
IC50 (HepG2 [1]; [11]): 46.3 µM | Ratio (HepG2 [2]): 0.481 | Ratio (HepG2 [3]): 0.95 | Ratio (HepG2 [4]): 0.732 | Ratio (HepG2 [5]): 1.619

Cc1ccc(S(=O)(=O)Nc2ccc(-c3cc(-c4ccc([N+](=O)[O-])cc4)[nH]c(=S)n3)cc2)cc1
IC50 (HepG2 [1]; [11]): 36.5 µM | Ratio (HepG2 [2]): 0.398 | Ratio (HepG2 [3]): 0.805 | Ratio (HepG2 [4]): 0.486 | Ratio (HepG2 [5]): 1.066
